Results: patent US20240033244A1, “COMPOSITIONS AND METHODS FOR INHIBITING YTHDF1” (SHANGHAI INSTITUTE OF MATERIA MEDICA, CHINESE ACADEMY OF …, priority 2020, published 2024)

What was measured:
[1] = system: draining lymph node T cells; experiment: Draining lymph node T cell IFN-γ after OT1 peptide stimulation; type: in vivo, mouse; settings: 1 μg/mL OT1 peptide
Method: Tumor infiltrating leukocytes were resuspended by RPMI 1640 medium at 5×10^6 per mL in 96-well plates. Phorbol-12-myristate-13-acetate (PMA) (2.5 μg/mL) and ionomycin (0.5 μg/mL) were used to stimulate T cells together with brefeldin A were added to the culture medium for 2 hours at 37° C. Cell concentration of total lymphocytes from draining lymph node was adjusted to 5×10^6 per mL in 96-well plate. 1 μg/mL OT-1 (OVA 257-264) peptide was added to the wells and stimulated for 96 hours. Samples were stained with CD45 and CD8 on ice for 30 min. Intracellular staining was performed to quantify IFN-γ and granzyme B production.
Then, lymphocytes from draining lymph node were isolated and stimulated with 1 μg/mL OT1 peptide, and IFN-γ producing cell were analyzed by FACS.

FLT3L-DCs = experiment: FLT3L-DC cross-priming of OT-I T cells in vitro (IFN-γ cytometric bead array); type: cell-based, mouse; settings: 10 μM SAA 12 hours
Method: Bone marrow was isolated from wild-type and Ythdf1^−/− mice and treated with red cell lysis buffer to remove red blood cell. IMDM medium containing 10% fetal bovine serum was used to suspend bone marrow cells. To culture FLT3L-DCs, cell concentration was adjusted to 1×10^6/mL. Cells were cultured with 100 ng/mL FLT3L for 9 days to get mature FLT3L-DCs. Mature FLT3L-DCs were purified via EasySep Mouse CD11c Positive Selection Kit II, then treated with 10 μM SAA or DMSO in IMDM medium (contain 10% bovine and 100 ng/mL FLT3L) for 10 hours.
For in vitro cross-presentation study, mature FLT3L-DCs were harvested on day 9 and purified by EasySep Mouse CD11 c Positive Selection Kit II, then treated with 10 μM SAA or DMSO in IMDM medium (contain 10% bovine and 100 ng/mL FLT3L) for 10 h. […] Then antigen-obtained DCs were purified and co-cultured with naïve T cells from OT-1 mice at a ratio of 1:10 for 96 h. The co-culture medium was 1640 RPMI contains 10% fetal bovine with or without 1 μg/mL OT-1 (OVA 257-264) peptide. […] Supernatant IFN-γ production was detected via CBA assay.
Bone marrow derived cells (wildtype or Ythdf1 gene deficient) were cultured with FLT3L for 9 days to get FLT3L-DC and these DCs were treated with 10 μM SAA for 12 hours, then, FLT3L-DCs were co-cultured with necrotic B16-OVA tumor cell for 6 hours. […] IFN-γ production was assessed by IFN-γ cytometric bead array.

YTHDF1 (361-559) [2] = target: T1, YTHDF1 (361-559) (Homo sapiens, UniProt Q9BYJ9); experiment: Fluorescence polarization (FP) assay, inhibition of m6A-containing mRNA binding to YTHDF1; settings: read-out: IC50, inhibition of interaction between m6A-containing mRNA and YTHDF1
T1 construct: GST (N, cleaved yes); made in house; host or cells: E. coli BL21 (DE3)
T1 sequence (Q9BYJ9 with tags, fused parts or gaps): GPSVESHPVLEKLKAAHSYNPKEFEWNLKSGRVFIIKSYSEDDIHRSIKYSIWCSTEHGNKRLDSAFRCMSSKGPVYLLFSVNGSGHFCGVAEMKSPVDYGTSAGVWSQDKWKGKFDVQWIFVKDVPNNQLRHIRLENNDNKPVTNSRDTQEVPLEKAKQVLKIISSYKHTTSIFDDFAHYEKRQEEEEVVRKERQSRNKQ
Method: As for activity tests, 1.25 μM YTHDF1 (361-559) was incubated with candidate compounds diluted to concentrations as indicated for 30 minutes. The subsequent steps were similar to that of HTS. And an equal amount of DMSO was used as the negative control.

B16-OVA tumor = B16-OVA tumor growth in Ythdf1F/F and CD11ccreYthdf1F/F mice; type: in vivo, mouse; settings: 2×10^6 B16-OVA, 10 μM SAA day 9 and day 11
Method: For B6 mice tumor growth, 5×10^5 B16-OVA or 1×10^6 E.G7-OVA tumor cells were inoculated subcutaneously (s.c.) into the flank of mice. Tumor length (a) and width (b) was measured every two days and tumor volume was calculated by the formula ab^2/2. For the inhibitor treatment, 10 μM SAA or DMSO was injected intraperitoneally (i.p.) on day 9 and 11 after tumor inoculation. For other mice model (rag1^−/− and Ythdf1 conditional knockout), times and dose of inhibitor treatment was the same. For α-PD-L1 and SAA combination treatment, 5×10^5 B16-OVA tumor cells were inoculated subcutaneously into the flank of mice. 100 μg α-PD-L1 antibody (clone 10F.9G2) or rat immunoglobulin were administered at day 9 after tumor inoculation. 10 μM SAA or DMSO was administered in the same way on day 9 and 11 after tumor injection.
To determine whether DCs are the major targets of SAA, Ythdf1^F/F and CD11c^creYthdf1^F/F mice were injected subcutaneously with 2×10^6 B16-OVA cells. Then, 10 μM SAA was injected to each mouse on day 9 and day 11, and tumor growth was monitored.

YTHDF1 (361-559) [3] = target: T1, YTHDF1 (361-559); experiment: Isothermal Titration Calorimetry (ITC); type: binding; settings: 25° C.
Method: Purified YTHDF1 (361-559) was dialyzed at 4° C. overnight in dialysis buffer (20 mM Hepes (pH 7.4) and 200 mM NaCl). Then dialyzed protein was diluted to 50 μM with dialysis buffer. […] Isothermal titration calorimetry (ITC) was conducted on a Microcal ITC 200 isothermal titration calorimeter (GE Healthcare) at 25° C. 200 μL 50 μM YTHDF1 (361-559) was filled in the sample cell and constantly stirred at 750 rpm; 40 μL 1 mM SAA was filled in the syringe. […] Then in order to make the titration effect more obvious, the nineteen […] injections were changed after calculation into five 2.5 μL injections followed by fourteen 1.9 μL injections. […] The experimental data was analyzed via Microcal ORIGIN (v7.0) software (Microcal Software).
Then, the binding affinity between SAA and YTHDF1 was evaluated. The Isothermal Titration Calorimetry (ITC) assay was performed to accurately test the equilibrium dissociation constants (Kd) between YTHDF1 and SAA. The ITC assay was conducted on a Microcal iTC200 isothermal titration calorimeter (GE Healthcare) for three times independently. Briefly, freshly purified YTHDF1 (50 μM) was titrated with 1 mM SAA at 25° C. in a buffer comprising 20 mM Hepes (pH 7.4) and 200 mM NaCl.

IC50 (YTHDF1 (361-559) [2]): 2.3 ± 0.11 µM
entropy change ΔS (YTHDF1 (361-559) [3]): 13.6 cal/mol/deg
Kd (YTHDF1 (361-559) [3]; 50 μM YTHDF1 titrated with 1 mM SAA): 5.71 µM
SMILES: O=C(/C=C/c1ccc(O)c(O)c1/C=C/c1ccc(O)c(O)c1)O[C@H](Cc1ccc(O)c(O)c1)C(=O)O [SAA, Salvianolic Acid A]
IFN-γ production by DLN T cells [1]: much more IFN-γ than DMSO group
cross-presentation function (IFN-γ production) (FLT3L-DCs; Ythdf1-/- FLT3L-DCs): could also promote the cross-presentation function
cross-priming of T cells (IFN-γ production) (FLT3L-DCs; wildtype FLT3L-DCs): better ability in cross-priming T cells than control group
tumor growth (B16-OVA tumor; CD11ccreYthdf1F/F mice): no further evident effect of tumor control
tumor growth (B16-OVA tumor; Ythdf1F/F mice): showed analogous situation as observed in CD11c^creYthdf1^F/F mice
